In ChEMBL document CHEMBL1147590, “Synthesis and antitumor activity of s-tetrazine derivatives” (Bioorg Med Chem Lett, 2004) one finds Rate of inhibition data, which are given here for seven compounds.

The first experiment relates to A549. Nature of the experiment: In vitro rate of inhibition of A-549 tumor cell growth at 10E-6 mol/L. It counts as functional, Homo sapiens. Conditions: at 1 µM.
`CC1=NN(C(=O)Nc2cccc(Cl)c2)C(C)=NN1C(=O)Nc1cccc(Cl)c1` came in with a Rate of inhibition of 0%.
The same measure, in the same setting: in the case of `CCCC1=NN(C(=O)Nc2cccc(Cl)c2)C(CCC)=NN1C(=O)Nc1cccc(Cl)c1` it was 59.6%; in that of `FC(F)(F)c1ccc(-c2nnc(-c3ccc(C(F)(F)F)cc3)nn2)cc1`, 0%; in that of `CCCOC(=O)N1N=C(C)N=NC1C` (stereo not given), 0%.
For the compound `CCCC1=NNC(CCC)N=N1` (stereo not given), the Rate of inhibition is 0%.
Same read-out and setting: next, `CCC1NN(C(C)=O)C(CC)NN1C(C)=O` (stereo not given): 10.1%; `CC1=NN(C(=O)Nc2ccccc2)C(C)=NN1C(=O)Nc1ccccc1`: 79.4%.

In another experiment the test system is P388. Nature of the experiment: In vitro rate of inhibition of P388 tumor cell growth at 10E-8 mol/L. Type of experiment: functional, Mus musculus. The following applies: at 0.01 µM.
Regarding `CC1=NN(C(=O)Nc2cccc(Cl)c2)C(C)=NN1C(=O)Nc1cccc(Cl)c1`, the Rate of inhibition worked out at 0%.
The compound `CCCC1=NN(C(=O)Nc2cccc(Cl)c2)C(CCC)=NN1C(=O)Nc1cccc(Cl)c1` returned a Rate of inhibition of 0%.
For `FC(F)(F)c1ccc(-c2nnc(-c3ccc(C(F)(F)F)cc3)nn2)cc1`, the Rate of inhibition is reported as 9.7%.
As for `CCCOC(=O)N1N=C(C)N=NC1C` (stereo not given), the Rate of inhibition was 5.2%.
The same measure, in the same setting: in the case of `CCCC1=NNC(CCC)N=N1` (stereo not given) it was 0%; in that of `CCC1NN(C(C)=O)C(CC)NN1C(C)=O` (stereo not given), 0%; in that of `CC1=NN(C(=O)Nc2ccccc2)C(C)=NN1C(=O)Nc1ccccc1`, 81.3%.

A further experiment concerns A549. Nature of the experiment: In vitro rate of inhibition of A-549 tumor cell growth at 10E-4 mol/L. Type of experiment: functional, Homo sapiens. Conditions: at 100 µM.
In the case of `CC1=NN(C(=O)Nc2cccc(Cl)c2)C(C)=NN1C(=O)Nc1cccc(Cl)c1`, the Rate of inhibition came out at 21.2%.
Still for that read-out and setting: next, `CCCC1=NN(C(=O)Nc2cccc(Cl)c2)C(CCC)=NN1C(=O)Nc1cccc(Cl)c1`: 91.3%.
Still for that read-out and setting: next, `FC(F)(F)c1ccc(-c2nnc(-c3ccc(C(F)(F)F)cc3)nn2)cc1`: 40.2%.
The same measure, in the same setting: next, `CCCOC(=O)N1N=C(C)N=NC1C` (stereo not given): 16.7%.
The compound `CCCC1=NNC(CCC)N=N1` (stereo not given) registered a Rate of inhibition of 61.7%.
`CCC1NN(C(C)=O)C(CC)NN1C(C)=O` (stereo not given) registered a Rate of inhibition of 47.5%.
The same measure, in the same setting: next, `CC1=NN(C(=O)Nc2ccccc2)C(C)=NN1C(=O)Nc1ccccc1`: 76.5%.

The subject of the next experiment is A549. Nature of the experiment: In vitro rate of inhibition of A-549 tumor cell growth at 10E-5 mol/L. Conditions: at 10 µM. Type of experiment: functional, Homo sapiens.
As to `CC1=NN(C(=O)Nc2cccc(Cl)c2)C(C)=NN1C(=O)Nc1cccc(Cl)c1`, the Rate of inhibition was determined as 7.6%.
Still for that read-out and setting: next, `CCCC1=NN(C(=O)Nc2cccc(Cl)c2)C(CCC)=NN1C(=O)Nc1cccc(Cl)c1`: 88.4%; `FC(F)(F)c1ccc(-c2nnc(-c3ccc(C(F)(F)F)cc3)nn2)cc1`: 2.5%; `CCCOC(=O)N1N=C(C)N=NC1C` (stereo not given): 11%.
On to `CCCC1=NNC(CCC)N=N1` (stereo not given), for which the Rate of inhibition is reported as 0.5%.
`CCC1NN(C(C)=O)C(CC)NN1C(C)=O` (stereo not given) gave a Rate of inhibition of 9.7%.
`CC1=NN(C(=O)Nc2ccccc2)C(C)=NN1C(=O)Nc1ccccc1`: the Rate of inhibition is 77.9%.

The subject of the next experiment is P388. The experiment in a line: In vitro rate of inhibition of P388 tumor cell growth at 10E-6 mol/L. The following applies: at 1 µM. Type of experiment: functional, Mus musculus.
For `CC1=NN(C(=O)Nc2cccc(Cl)c2)C(C)=NN1C(=O)Nc1cccc(Cl)c1`, the Rate of inhibition is listed as 6.3%.
Still for that read-out and setting: in the case of `CCCC1=NN(C(=O)Nc2cccc(Cl)c2)C(CCC)=NN1C(=O)Nc1cccc(Cl)c1` it was 0%; in that of `FC(F)(F)c1ccc(-c2nnc(-c3ccc(C(F)(F)F)cc3)nn2)cc1`, 33%.
On the same count and under the same terms, next, `CCCOC(=O)N1N=C(C)N=NC1C` (stereo not given): 9%; `CCCC1=NNC(CCC)N=N1` (stereo not given): 0%.
Same read-out and setting: next, `CCC1NN(C(C)=O)C(CC)NN1C(C)=O` (stereo not given): 0%; `CC1=NN(C(=O)Nc2ccccc2)C(C)=NN1C(=O)Nc1ccccc1`: 90.6%.

For the next experiment, the system named is P388. Nature of the experiment: In vitro rate of inhibition of P388 tumor cell growth at 10E-7 mol/L. Type of experiment: functional, Mus musculus. The following applies: at 0.1 µM.
`CC1=NN(C(=O)Nc2cccc(Cl)c2)C(C)=NN1C(=O)Nc1cccc(Cl)c1` yielded a Rate of inhibition of 0%.
In the case of `CCCC1=NN(C(=O)Nc2cccc(Cl)c2)C(CCC)=NN1C(=O)Nc1cccc(Cl)c1`, the Rate of inhibition is reported as 0%.
Still for that read-out and setting: next, `FC(F)(F)c1ccc(-c2nnc(-c3ccc(C(F)(F)F)cc3)nn2)cc1`: 19.5%.
`CCCOC(=O)N1N=C(C)N=NC1C` (stereo not given) yielded a Rate of inhibition of 8.7%.
Still for that read-out and setting: next, `CCCC1=NNC(CCC)N=N1` (stereo not given): 0%; `CCC1NN(C(C)=O)C(CC)NN1C(C)=O` (stereo not given): 0%.
The same measure, in the same setting: in the case of `CC1=NN(C(=O)Nc2ccccc2)C(C)=NN1C(=O)Nc1ccccc1` it was 87.5%.

The subject of another experiment is A549. The experiment in a line: In vitro rate of inhibition of A-549 tumor cell growth at 10E-8 mol/L. It counts as functional, Homo sapiens. The following applies: at 0.01 µM.
Consider `CC1=NN(C(=O)Nc2cccc(Cl)c2)C(C)=NN1C(=O)Nc1cccc(Cl)c1`, for which the Rate of inhibition was determined as 0%.
With `CCCC1=NN(C(=O)Nc2cccc(Cl)c2)C(CCC)=NN1C(=O)Nc1cccc(Cl)c1`, the Rate of inhibition turned out to be 0%.
On the same count and under the same terms, in the case of `FC(F)(F)c1ccc(-c2nnc(-c3ccc(C(F)(F)F)cc3)nn2)cc1` it was 0%; in that of `CCCOC(=O)N1N=C(C)N=NC1C` (stereo not given), 0%; in that of `CCCC1=NNC(CCC)N=N1` (stereo not given), 0%.
On the same count and under the same terms, next, `CCC1NN(C(C)=O)C(CC)NN1C(C)=O` (stereo not given): 0%; `CC1=NN(C(=O)Nc2ccccc2)C(C)=NN1C(=O)Nc1ccccc1`: 50%.

For a further experiment, the system named is A549. The experiment in a line: In vitro rate of inhibition of A-549 tumor cell growth at 10E-7 mol/L. It counts as functional, Homo sapiens. The following applies: at 0.1 µM.
For the compound `CC1=NN(C(=O)Nc2cccc(Cl)c2)C(C)=NN1C(=O)Nc1cccc(Cl)c1`, the Rate of inhibition stood at 0%.
Compound `CCCC1=NN(C(=O)Nc2cccc(Cl)c2)C(CCC)=NN1C(=O)Nc1cccc(Cl)c1` returned a Rate of inhibition of 10.8%.
`FC(F)(F)c1ccc(-c2nnc(-c3ccc(C(F)(F)F)cc3)nn2)cc1` came in with a Rate of inhibition of 0%.
Still for that read-out and setting: next, `CCCOC(=O)N1N=C(C)N=NC1C` (stereo not given): 0%.
Still for that read-out and setting: next, `CCCC1=NNC(CCC)N=N1` (stereo not given): 0%.
In turn, `CCC1NN(C(C)=O)C(CC)NN1C(C)=O` (stereo not given) registered a Rate of inhibition of 2.9%.
With `CC1=NN(C(=O)Nc2ccccc2)C(C)=NN1C(=O)Nc1ccccc1`, the Rate of inhibition was found to be 60.3%.

The subject of another experiment is P388. The experiment in a line: In vitro rate of inhibition of P388 tumor cell growth at 10E-4 mol/L. The following applies: at 100 µM. Type of experiment: functional, Mus musculus.
`CC1=NN(C(=O)Nc2cccc(Cl)c2)C(C)=NN1C(=O)Nc1cccc(Cl)c1` displayed a Rate of inhibition of 85.9%.
As for `CCCC1=NN(C(=O)Nc2cccc(Cl)c2)C(CCC)=NN1C(=O)Nc1cccc(Cl)c1`, the Rate of inhibition is 84.4%.
On the same count and under the same terms, in the case of `FC(F)(F)c1ccc(-c2nnc(-c3ccc(C(F)(F)F)cc3)nn2)cc1` it was 51.5%; in that of `CCCOC(=O)N1N=C(C)N=NC1C` (stereo not given), 34.8%.
Compound `CCCC1=NNC(CCC)N=N1` (stereo not given) yielded a Rate of inhibition of 42.2%.
Same read-out and setting: next, `CCC1NN(C(C)=O)C(CC)NN1C(C)=O` (stereo not given): 38.9%; `CC1=NN(C(=O)Nc2ccccc2)C(C)=NN1C(=O)Nc1ccccc1`: 89.1%.

The next experiment relates to P388. Nature of the experiment: In vitro rate of inhibition of P388 tumor cell growth at 10E-5 mol/L. Conditions: at 10 µM. Type of experiment: functional, Mus musculus.
Turning to `CC1=NN(C(=O)Nc2cccc(Cl)c2)C(C)=NN1C(=O)Nc1cccc(Cl)c1`, the Rate of inhibition amounted to 29.7%.
Compound `CCCC1=NN(C(=O)Nc2cccc(Cl)c2)C(CCC)=NN1C(=O)Nc1cccc(Cl)c1` had a Rate of inhibition of 58.7%.
`FC(F)(F)c1ccc(-c2nnc(-c3ccc(C(F)(F)F)cc3)nn2)cc1` showed a Rate of inhibition of 44.4%.
For `CCCOC(=O)N1N=C(C)N=NC1C` (stereo not given), the Rate of inhibition came out at 13.5%.
Same read-out and setting: next, `CCCC1=NNC(CCC)N=N1` (stereo not given): 0%; `CCC1NN(C(C)=O)C(CC)NN1C(C)=O` (stereo not given): 0%; `CC1=NN(C(=O)Nc2ccccc2)C(C)=NN1C(=O)Nc1ccccc1`: 90.6%.
